Measured values from ChEMBL document CHEMBL1909046, “DrugMatrix in vitro pharmacology data”.

target: Cytochrome P450 2D6 (Homo sapiens, UniProt P10635); test: not given; details: bti-tn-5b1-4; further: in other assays of this panel Not Active means under 50% inhibition at 10 µM
Sequence (P10635 whole entry): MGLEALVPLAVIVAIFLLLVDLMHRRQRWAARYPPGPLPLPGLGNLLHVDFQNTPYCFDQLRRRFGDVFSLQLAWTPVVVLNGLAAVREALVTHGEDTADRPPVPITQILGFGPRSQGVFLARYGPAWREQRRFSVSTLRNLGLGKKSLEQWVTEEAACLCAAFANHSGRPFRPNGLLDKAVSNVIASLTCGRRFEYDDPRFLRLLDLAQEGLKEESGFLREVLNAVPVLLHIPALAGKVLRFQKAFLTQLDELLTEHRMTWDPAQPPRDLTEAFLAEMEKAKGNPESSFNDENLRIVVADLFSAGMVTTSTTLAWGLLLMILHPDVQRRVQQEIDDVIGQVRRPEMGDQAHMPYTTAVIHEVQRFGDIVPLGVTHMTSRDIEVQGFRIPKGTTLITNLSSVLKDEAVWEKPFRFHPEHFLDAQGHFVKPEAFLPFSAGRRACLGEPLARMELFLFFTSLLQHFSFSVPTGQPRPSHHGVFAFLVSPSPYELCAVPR

Compound | IC50 | Ki
C#C[C@]1(O)CC[C@H]2[C@@H]3CCC4=CC(=O)CC[C@@H]4[C@H]3CC[C@@]21C [NORETHINDRONE] | Not Active | Not Active
CC(CN1c2ccccc2Sc2ccccc21)N(C)C (stereo not given) [PROMETHAZINE] | Not Active | Not Active
COc1cc(NC(C)CCCN)c2ncccc2c1 (stereo not given) [PRIMAQUINE] | Not Active | Not Active
O=c1[nH]c2ccccc2c2ccccc12 | Not Active | Not Active
CC(=O)[C@]1(O)Cc2c(O)c3c(c(O)c2[C@@H](O[C@H]2C[C@H](N)[C@H](O)[C@H](C)O2)C1)C(=O)c1ccccc1C3=O [IDARUBICIN] | Not Active | Not Active
Oc1ccccc1 [PHENOL] | Not Active | Not Active
O=C(Nc1ccc(Cl)c(Cl)c1)c1cc(Cl)cc(Cl)c1O [3,3',4',5-TETRACHLOROSALICYLANILIDE] | Not Active | Not Active
CC(=O)Nc1ccc2c(c1)Cc1ccccc1-2 [2-ACETYLAMINOFLUORENE] | Not Active | Not Active
C[N+](C)(C)CCOC(N)=O.[Cl-] [CARBACHOL] | Not Active | Not Active
Oc1ncnc2[nH]ncc12 [ALLOPURINOL] | Not Active | Not Active

target: Insulin receptor (Rattus norvegicus, UniProt P15127); test: not given; assay type: cell membranes, Wistar, Liver, Membrane; details: not given; further: in other assays of this panel Not Active means under 50% inhibition at 10 µM
Sequence (P15127 27-759 limits assumed): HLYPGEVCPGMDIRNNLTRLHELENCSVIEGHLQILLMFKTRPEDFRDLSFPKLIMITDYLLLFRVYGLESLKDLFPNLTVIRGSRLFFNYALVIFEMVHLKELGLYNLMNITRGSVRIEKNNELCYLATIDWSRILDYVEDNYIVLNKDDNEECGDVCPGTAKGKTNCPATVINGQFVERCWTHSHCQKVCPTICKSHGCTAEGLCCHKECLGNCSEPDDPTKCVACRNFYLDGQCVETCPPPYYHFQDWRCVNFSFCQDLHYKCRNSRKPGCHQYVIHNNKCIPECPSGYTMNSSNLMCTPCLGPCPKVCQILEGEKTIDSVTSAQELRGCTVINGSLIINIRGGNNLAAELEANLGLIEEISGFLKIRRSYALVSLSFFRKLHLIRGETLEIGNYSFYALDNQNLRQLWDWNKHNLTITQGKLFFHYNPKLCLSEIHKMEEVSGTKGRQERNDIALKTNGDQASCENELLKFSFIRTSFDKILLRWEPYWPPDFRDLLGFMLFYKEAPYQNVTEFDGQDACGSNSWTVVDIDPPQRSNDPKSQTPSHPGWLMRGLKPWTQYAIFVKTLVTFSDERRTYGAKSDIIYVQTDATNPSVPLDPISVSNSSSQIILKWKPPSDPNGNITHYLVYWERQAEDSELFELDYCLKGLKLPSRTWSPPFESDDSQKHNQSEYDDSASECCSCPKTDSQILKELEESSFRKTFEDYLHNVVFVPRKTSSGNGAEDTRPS
Sequence (P15127 764-1383 limits assumed): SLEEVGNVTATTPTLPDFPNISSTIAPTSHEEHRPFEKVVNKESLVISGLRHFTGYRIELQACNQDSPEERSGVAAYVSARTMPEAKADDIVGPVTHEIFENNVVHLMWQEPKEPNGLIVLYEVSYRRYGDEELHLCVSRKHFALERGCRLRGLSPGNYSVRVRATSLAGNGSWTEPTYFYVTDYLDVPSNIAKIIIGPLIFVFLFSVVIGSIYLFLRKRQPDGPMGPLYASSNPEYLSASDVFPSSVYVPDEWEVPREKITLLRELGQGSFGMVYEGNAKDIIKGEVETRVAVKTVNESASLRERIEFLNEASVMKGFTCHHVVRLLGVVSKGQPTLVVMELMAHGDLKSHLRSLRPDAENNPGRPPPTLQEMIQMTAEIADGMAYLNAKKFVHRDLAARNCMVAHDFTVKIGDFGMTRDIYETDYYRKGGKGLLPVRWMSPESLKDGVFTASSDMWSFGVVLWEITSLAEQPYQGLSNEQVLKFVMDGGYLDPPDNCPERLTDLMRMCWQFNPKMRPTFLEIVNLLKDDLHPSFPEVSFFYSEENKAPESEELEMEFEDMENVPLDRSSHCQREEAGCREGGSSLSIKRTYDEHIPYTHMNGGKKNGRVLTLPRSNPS

Compound | IC50
C#C[C@]1(O)CC[C@H]2[C@@H]3CCC4=CC(=O)CC[C@@H]4[C@H]3CC[C@@]21C [NORETHINDRONE] | Not Active
CC(CN1c2ccccc2Sc2ccccc21)N(C)C (stereo not given) [PROMETHAZINE] | Not Active
COc1cc(NC(C)CCCN)c2ncccc2c1 (stereo not given) [PRIMAQUINE] | Not Active
O=c1[nH]c2ccccc2c2ccccc12 | Not Active
CC(=O)[C@]1(O)Cc2c(O)c3c(c(O)c2[C@@H](O[C@H]2C[C@H](N)[C@H](O)[C@H](C)O2)C1)C(=O)c1ccccc1C3=O [IDARUBICIN] | Not Active
Oc1ccccc1 [PHENOL] | Not Active
O=C(Nc1ccc(Cl)c(Cl)c1)c1cc(Cl)cc(Cl)c1O [3,3',4',5-TETRACHLOROSALICYLANILIDE] | Not Active
CC(=O)Nc1ccc2c(c1)Cc1ccccc1-2 [2-ACETYLAMINOFLUORENE] | Not Active
C[N+](C)(C)CCOC(N)=O.[Cl-] [CARBACHOL] | Not Active
Oc1ncnc2[nH]ncc12 [ALLOPURINOL] | Not Active

target: T1, Cholecystokinin receptor type A (Homo sapiens, UniProt P32238); test: not given; assay type: cell membranes, Membrane; details: 1321-n1; further: in other assays of this panel Not Active means under 50% inhibition at 10 µM
T1 sequence (P32238 whole entry): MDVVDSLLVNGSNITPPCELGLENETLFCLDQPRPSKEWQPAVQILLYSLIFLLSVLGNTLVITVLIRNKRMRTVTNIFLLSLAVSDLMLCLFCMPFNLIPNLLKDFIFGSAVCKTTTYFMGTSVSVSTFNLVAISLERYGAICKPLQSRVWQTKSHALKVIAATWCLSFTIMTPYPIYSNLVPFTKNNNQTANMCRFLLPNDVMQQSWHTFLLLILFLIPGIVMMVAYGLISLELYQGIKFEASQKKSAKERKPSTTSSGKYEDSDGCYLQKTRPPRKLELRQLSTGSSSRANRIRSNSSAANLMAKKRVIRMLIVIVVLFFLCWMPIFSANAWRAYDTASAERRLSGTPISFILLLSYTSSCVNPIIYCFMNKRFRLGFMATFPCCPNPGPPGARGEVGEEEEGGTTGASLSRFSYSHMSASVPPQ

Compound | IC50
C#C[C@]1(O)CC[C@H]2[C@@H]3CCC4=CC(=O)CC[C@@H]4[C@H]3CC[C@@]21C [NORETHINDRONE] | Not Active
CC(CN1c2ccccc2Sc2ccccc21)N(C)C (stereo not given) [PROMETHAZINE] | Not Active
COc1cc(NC(C)CCCN)c2ncccc2c1 (stereo not given) [PRIMAQUINE] | Not Active
O=c1[nH]c2ccccc2c2ccccc12 | Not Active
CC(=O)[C@]1(O)Cc2c(O)c3c(c(O)c2[C@@H](O[C@H]2C[C@H](N)[C@H](O)[C@H](C)O2)C1)C(=O)c1ccccc1C3=O [IDARUBICIN] | Not Active
Oc1ccccc1 [PHENOL] | Not Active
O=C(Nc1ccc(Cl)c(Cl)c1)c1cc(Cl)cc(Cl)c1O [3,3',4',5-TETRACHLOROSALICYLANILIDE] | Not Active
CC(=O)Nc1ccc2c(c1)Cc1ccccc1-2 [2-ACETYLAMINOFLUORENE] | Not Active
C[N+](C)(C)CCOC(N)=O.[Cl-] [CARBACHOL] | Not Active
Oc1ncnc2[nH]ncc12 [ALLOPURINOL] | Not Active

target: T2, Substance-K receptor (Homo sapiens, UniProt P21452); test: not given; assay type: cell membranes, CHO, Membrane; details: cho; further: in other assays of this panel Not Active means under 50% inhibition at 10 µM
T2 sequence (P21452 whole entry): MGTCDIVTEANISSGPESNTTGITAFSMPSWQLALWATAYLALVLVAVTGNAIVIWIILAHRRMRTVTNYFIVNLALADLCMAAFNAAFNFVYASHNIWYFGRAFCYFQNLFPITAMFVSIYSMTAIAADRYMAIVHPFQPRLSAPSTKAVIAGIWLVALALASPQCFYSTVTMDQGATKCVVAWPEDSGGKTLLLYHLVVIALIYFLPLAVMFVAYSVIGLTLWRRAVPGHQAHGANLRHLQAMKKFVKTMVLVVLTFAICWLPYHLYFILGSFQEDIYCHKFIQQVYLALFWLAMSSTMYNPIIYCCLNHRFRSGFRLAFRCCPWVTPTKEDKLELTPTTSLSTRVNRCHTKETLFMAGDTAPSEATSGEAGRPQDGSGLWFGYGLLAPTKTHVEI

Compound | IC50
C#C[C@]1(O)CC[C@H]2[C@@H]3CCC4=CC(=O)CC[C@@H]4[C@H]3CC[C@@]21C [NORETHINDRONE] | Not Active
CC(CN1c2ccccc2Sc2ccccc21)N(C)C (stereo not given) [PROMETHAZINE] | Not Active
COc1cc(NC(C)CCCN)c2ncccc2c1 (stereo not given) [PRIMAQUINE] | Not Active
O=c1[nH]c2ccccc2c2ccccc12 | Not Active
CC(=O)[C@]1(O)Cc2c(O)c3c(c(O)c2[C@@H](O[C@H]2C[C@H](N)[C@H](O)[C@H](C)O2)C1)C(=O)c1ccccc1C3=O [IDARUBICIN] | Not Active
Oc1ccccc1 [PHENOL] | Not Active
O=C(Nc1ccc(Cl)c(Cl)c1)c1cc(Cl)cc(Cl)c1O [3,3',4',5-TETRACHLOROSALICYLANILIDE] | Not Active
CC(=O)Nc1ccc2c(c1)Cc1ccccc1-2 [2-ACETYLAMINOFLUORENE] | Not Active
C[N+](C)(C)CCOC(N)=O.[Cl-] [CARBACHOL] | Not Active
Oc1ncnc2[nH]ncc12 [ALLOPURINOL] | Not Active

target: T3, Type-2 angiotensin II receptor (Homo sapiens, UniProt P50052); test: not given; assay type: cell-based; details: cho-k1; further: in other assays of this panel Not Active means under 50% inhibition at 10 µM
T3 sequence (P50052 whole entry): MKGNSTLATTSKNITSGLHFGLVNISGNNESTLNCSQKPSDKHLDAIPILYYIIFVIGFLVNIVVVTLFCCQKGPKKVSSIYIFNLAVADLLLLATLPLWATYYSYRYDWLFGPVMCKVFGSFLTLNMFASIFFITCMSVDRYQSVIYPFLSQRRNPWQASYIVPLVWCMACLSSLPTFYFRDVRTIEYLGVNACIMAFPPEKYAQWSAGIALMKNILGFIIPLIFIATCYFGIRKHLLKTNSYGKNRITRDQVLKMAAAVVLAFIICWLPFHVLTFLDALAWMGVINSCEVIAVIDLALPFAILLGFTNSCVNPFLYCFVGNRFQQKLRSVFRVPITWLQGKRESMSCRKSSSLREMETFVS

Compound | IC50
C#C[C@]1(O)CC[C@H]2[C@@H]3CCC4=CC(=O)CC[C@@H]4[C@H]3CC[C@@]21C [NORETHINDRONE] | Not Active
CC(CN1c2ccccc2Sc2ccccc21)N(C)C (stereo not given) [PROMETHAZINE] | Not Active
COc1cc(NC(C)CCCN)c2ncccc2c1 (stereo not given) [PRIMAQUINE] | Not Active
O=c1[nH]c2ccccc2c2ccccc12 | Not Active
CC(=O)[C@]1(O)Cc2c(O)c3c(c(O)c2[C@@H](O[C@H]2C[C@H](N)[C@H](O)[C@H](C)O2)C1)C(=O)c1ccccc1C3=O [IDARUBICIN] | Not Active
Oc1ccccc1 [PHENOL] | Not Active
O=C(Nc1ccc(Cl)c(Cl)c1)c1cc(Cl)cc(Cl)c1O [3,3',4',5-TETRACHLOROSALICYLANILIDE] | Not Active
CC(=O)Nc1ccc2c(c1)Cc1ccccc1-2 [2-ACETYLAMINOFLUORENE] | Not Active
C[N+](C)(C)CCOC(N)=O.[Cl-] [CARBACHOL] | Not Active
Oc1ncnc2[nH]ncc12 [ALLOPURINOL] | Not Active

target: Aldo-keto reductase family 1 member B1 (Rattus norvegicus, UniProt P07943); test: biochemical; assay type: tissue-based, Lens of camera-type eye; details: not given

Compound | IC50
C#C[C@]1(O)CC[C@H]2[C@@H]3CCC4=CC(=O)CC[C@@H]4[C@H]3CC[C@@]21C [NORETHINDRONE] | Not Active
CC(CN1c2ccccc2Sc2ccccc21)N(C)C (stereo not given) [PROMETHAZINE] | Not Active
COc1cc(NC(C)CCCN)c2ncccc2c1 (stereo not given) [PRIMAQUINE] | Not Active
O=c1[nH]c2ccccc2c2ccccc12 | Not Active
CC(=O)[C@]1(O)Cc2c(O)c3c(c(O)c2[C@@H](O[C@H]2C[C@H](N)[C@H](O)[C@H](C)O2)C1)C(=O)c1ccccc1C3=O [IDARUBICIN] | Not Active
Oc1ccccc1 [PHENOL] | Not Active
O=C(Nc1ccc(Cl)c(Cl)c1)c1cc(Cl)cc(Cl)c1O [3,3',4',5-TETRACHLOROSALICYLANILIDE] | Not Active
CC(=O)Nc1ccc2c(c1)Cc1ccccc1-2 [2-ACETYLAMINOFLUORENE] | Not Active
C[N+](C)(C)CCOC(N)=O.[Cl-] [CARBACHOL] | Not Active
Oc1ncnc2[nH]ncc12 [ALLOPURINOL] | Not Active

target: Mu-type opioid receptor (Homo sapiens, UniProt P35372); test: DRUGMATRIX: Opiate mu (OP3, MOP) radioligand binding (ligand: [3H] Diprenorphine); assay type: cell membranes, CHO-K1, Membrane; details: cho-k1; Not Active = under 50% inhibition at 10 µM
Sequence (P35372 whole entry): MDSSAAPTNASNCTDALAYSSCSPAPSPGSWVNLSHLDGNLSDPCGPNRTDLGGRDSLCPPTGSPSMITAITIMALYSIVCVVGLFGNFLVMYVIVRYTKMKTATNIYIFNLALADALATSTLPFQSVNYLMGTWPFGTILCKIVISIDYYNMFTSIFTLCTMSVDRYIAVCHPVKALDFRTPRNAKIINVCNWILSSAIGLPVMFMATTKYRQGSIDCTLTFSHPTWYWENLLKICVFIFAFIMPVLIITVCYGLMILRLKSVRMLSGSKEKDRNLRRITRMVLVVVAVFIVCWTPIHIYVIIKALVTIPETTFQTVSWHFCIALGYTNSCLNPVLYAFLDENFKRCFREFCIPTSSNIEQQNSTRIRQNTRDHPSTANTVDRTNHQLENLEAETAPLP

Compound | IC50
C#C[C@]1(O)CC[C@H]2[C@@H]3CCC4=CC(=O)CC[C@@H]4[C@H]3CC[C@@]21C [NORETHINDRONE] | Not Active
CC(CN1c2ccccc2Sc2ccccc21)N(C)C (stereo not given) [PROMETHAZINE] | Not Active
COc1cc(NC(C)CCCN)c2ncccc2c1 (stereo not given) [PRIMAQUINE] | Not Active
O=c1[nH]c2ccccc2c2ccccc12 | Not Active
CC(=O)[C@]1(O)Cc2c(O)c3c(c(O)c2[C@@H](O[C@H]2C[C@H](N)[C@H](O)[C@H](C)O2)C1)C(=O)c1ccccc1C3=O [IDARUBICIN] | Not Active
Oc1ccccc1 [PHENOL] | Not Active
O=C(Nc1ccc(Cl)c(Cl)c1)c1cc(Cl)cc(Cl)c1O [3,3',4',5-TETRACHLOROSALICYLANILIDE] | Not Active
CC(=O)Nc1ccc2c(c1)Cc1ccccc1-2 [2-ACETYLAMINOFLUORENE] | Not Active
C[N+](C)(C)CCOC(N)=O.[Cl-] [CARBACHOL] | Not Active
Oc1ncnc2[nH]ncc12 [ALLOPURINOL] | Not Active

target: Melanocortin receptor 4 (Homo sapiens, UniProt P32245); test: not given; assay type: cell membranes, Membrane; details: hek293; further: in other assays of this panel Not Active means under 50% inhibition at 10 µM
Sequence (P32245 whole entry): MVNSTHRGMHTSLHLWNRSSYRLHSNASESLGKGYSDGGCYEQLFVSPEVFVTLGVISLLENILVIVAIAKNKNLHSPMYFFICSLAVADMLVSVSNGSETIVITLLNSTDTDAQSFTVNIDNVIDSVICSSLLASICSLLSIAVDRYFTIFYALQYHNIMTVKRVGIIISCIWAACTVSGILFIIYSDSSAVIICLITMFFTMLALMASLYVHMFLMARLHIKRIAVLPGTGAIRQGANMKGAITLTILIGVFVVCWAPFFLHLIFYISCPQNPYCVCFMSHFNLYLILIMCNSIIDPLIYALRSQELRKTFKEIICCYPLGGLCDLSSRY

Compound | IC50
C#C[C@]1(O)CC[C@H]2[C@@H]3CCC4=CC(=O)CC[C@@H]4[C@H]3CC[C@@]21C [NORETHINDRONE] | Not Active
CC(CN1c2ccccc2Sc2ccccc21)N(C)C (stereo not given) [PROMETHAZINE] | Not Active
COc1cc(NC(C)CCCN)c2ncccc2c1 (stereo not given) [PRIMAQUINE] | Not Active
O=c1[nH]c2ccccc2c2ccccc12 | Not Active
CC(=O)[C@]1(O)Cc2c(O)c3c(c(O)c2[C@@H](O[C@H]2C[C@H](N)[C@H](O)[C@H](C)O2)C1)C(=O)c1ccccc1C3=O [IDARUBICIN] | Not Active
Oc1ccccc1 [PHENOL] | Not Active
O=C(Nc1ccc(Cl)c(Cl)c1)c1cc(Cl)cc(Cl)c1O [3,3',4',5-TETRACHLOROSALICYLANILIDE] | Not Active
CC(=O)Nc1ccc2c(c1)Cc1ccccc1-2 [2-ACETYLAMINOFLUORENE] | Not Active
C[N+](C)(C)CCOC(N)=O.[Cl-] [CARBACHOL] | Not Active
Oc1ncnc2[nH]ncc12 [ALLOPURINOL] | Not Active
